In paper PMC12069643, “Structural insights into the selective recognition of RF-amide peptides by neuropeptide FF receptor 2” (EMBO Reports, 2025):

Legend:
human NPFFR2 = target: T1, human NPFFR2 (Homo sapiens, UniProt Q9Y5X5); test: GloSensor forskolin-stimulated cAMP assay, NPFFR2 wild-type; format: cell-based; settings: HEK293T, 0.5 μM forskolin; for Emax: HEK-293T
T1 construct: expressed in transfected cells; host or cells: HEK293T (pcDNA3.1 NPFFR2)
Description: Figure 1 Structural analysis and downstream signaling of NPFFR2. (A) The concentration-dependent response of various agonists on NPFFR2 is measured using a forskolin-stimulated cAMP assay. Data points represent mean values from three independent experiments (each with technical triplicate), with error bars indicating SEM (standard error of the mean). Raw data were normalized to the vehicle-treated (0%) and 0.5 μM forskolin-treated (100%) responses. […] (C) The extracellular loop 2 (ECL2, pink) and N-terminus (Nt, blue) of NPFFR2 are depicted using a cartoon model. […] Source data are available online for this figure.
HEK293T cells were seeded at a density of 6 × 10^5 cells per well in a six-well cell culture plate (SPL) and co-transfected with expression plasmids encoding GloSensor™ and each NPFFR construct, using 1 µg to 4 µg of DNA per well according to the Lipofectamine™ 2000 Transfection Reagent (Invitrogen) protocol. After 48 h of incubation under standard conditions (37 °C, 5% CO2), the cells were detached using Accutase solution (Sigma-Aldrich) and washed with PBS. The cells were then pelleted by centrifugation, resuspended in CO2-independent medium (Gibco) supplemented with Firefly D-Luciferin (0.5 mg/ml, NanoLight), and distributed into a 96-well white plate (SPL). After a 2-hour incubation, serially diluted ligands and 0.5 μM forskolin were added to each well to detect ligand-induced signaling. Luminescence signals were measured using a Mithras LB940 instrument (Berthold) with a measurement time of 1 s per well.
(§1) Data from the GloSensor^TM cAMP signaling assays were analyzed using GraphPad Prism with a three-parameter logistic model to fit concentration-response curves for both wild-type (WT) and mutant receptors. Mutant expression levels and DNA amounts were adjusted to match WT conditions. ΔpEC50 values were calculated by subtracting the log EC50 of the WT receptor from that of each mutant. Results are presented as mean ± SEM from three independent biological replicates, each performed in duplicate or more. Error bars represent the SEM. Statistical significance was assessed using one-way ANOVA, followed by Dunnett’s tests comparisons to the WT receptor. Significance levels were reported as follows: ns (not significant, P > 0.05); *P < 0.05; **P < 0.01; ***P < 0.001.

[1] = target: T2, NPFFR1-chimera (Q37^NtL/I293^6.58S/T307^7.31N) (Homo sapiens, UniProt Q9GZQ6, I293S/Q37L/T307N); test: GloSensor forskolin-stimulated cAMP assay, NPFFR1 triple mutant (chimera Q37NtL/I2936.58S/T3077.31N); format: cell-based; settings: HEK293T, 0.5 μM forskolin, three independent experiments
T2 construct: expressed in transfected cells; host or cells: HEK293T
T2 sequence (Q9GZQ6 whole entry Q37L/I293S/T307N): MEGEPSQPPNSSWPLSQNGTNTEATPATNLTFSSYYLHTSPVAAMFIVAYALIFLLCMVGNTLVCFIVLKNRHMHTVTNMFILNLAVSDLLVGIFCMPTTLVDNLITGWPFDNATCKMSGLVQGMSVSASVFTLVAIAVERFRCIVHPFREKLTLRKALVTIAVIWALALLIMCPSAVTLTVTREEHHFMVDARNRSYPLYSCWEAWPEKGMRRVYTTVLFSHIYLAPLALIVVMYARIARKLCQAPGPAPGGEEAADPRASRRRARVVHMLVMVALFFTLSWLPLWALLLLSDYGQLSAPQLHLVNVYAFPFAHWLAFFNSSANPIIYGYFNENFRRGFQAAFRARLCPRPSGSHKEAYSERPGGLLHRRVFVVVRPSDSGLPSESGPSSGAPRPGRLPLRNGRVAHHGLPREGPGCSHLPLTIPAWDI
Description: Figure 4 RF-amide ligand selectivity of NPFFR2 and NPFFR1. (A) Sequence alignment between human NPFFs and RFRPs, the endogenous ligands of NPFFRs, which share PXRF-NH2 motif at their C-terminus (shown in green letters). Key residues at the fifth and sixth positions from the C-terminus, are highlighted in bold. […] (B) The concentration-dependent response of various agonists on NPFFR1 was measured using a forskolin-stimulated cAMP assay. Data points represent the mean values from three independent experiments (each with technical triplicate), with error bars indicating SEM. Raw data were normalized to the vehicle-treated (0%) and 0.5 μM forskolin-treated (100%) responses. (C) Structural comparison between the binding modes of hNPSF to NPFFR2 and GnIH to NPFFR1. An AlphaFold2 prediction model of the GnIH–NPFFR1 complex was generated using the hNPSF–NPFFR2 complex structure as a template. The hydrophobicity of NPFFRs is shown with surface representation, where purple indicates hydrophilic regions and bronze indicates hydrophobic regions. […] (D) The cAMP response to the ligands hNPSF and GnIH was measured for both wild-type NPFFR1 and a mutant form of NPFFR1 using a forskolin-stimulated cAMP assay. […] Symbols represent mean values from three independent experiments, each conducted in technical triplicates, with error bars indicating SEM. Responses were normalized to vehicle-treated controls (0%) and 0.5 μM forskolin-treated controls (100%). Source data are available online for this figure.
To further validate whether these specific residues in NPFFR1 affect ligand selectivity, we generated a triple mutant of NPFFR1, in which residues Q37^Nt, I293^6.58, and T307^7.31 of NPFFR1 were replaced by the corresponding NPFFR2 residues, Leu, Ser, and Asn, respectively (Appendix Fig. S10). […]
HEK293T cells were seeded at a density of 6 × 10^5 cells per well in a six-well cell culture plate (SPL) and co-transfected with expression plasmids encoding GloSensor™ and each NPFFR construct, using 1 µg to 4 µg of DNA per well according to the Lipofectamine™ 2000 Transfection Reagent (Invitrogen) protocol. […] Luminescence signals were measured using a Mithras LB940 instrument (Berthold) with a measurement time of 1 s per well.
as §1, with “Results are presented as mean ± SEM from three independent biological replicates, each performed in duplicate or more. Error bars represent the SEM.” left out, “Significance levels were reported as follows: ns (not significant, P > 0.05); *P < 0.05; **P < 0.01; ***P < 0.001.” left out

[2] = NPFFR2 wild type (50% DNA treated), three independent experiments

T1 sequence (Q9Y5X5 103-522): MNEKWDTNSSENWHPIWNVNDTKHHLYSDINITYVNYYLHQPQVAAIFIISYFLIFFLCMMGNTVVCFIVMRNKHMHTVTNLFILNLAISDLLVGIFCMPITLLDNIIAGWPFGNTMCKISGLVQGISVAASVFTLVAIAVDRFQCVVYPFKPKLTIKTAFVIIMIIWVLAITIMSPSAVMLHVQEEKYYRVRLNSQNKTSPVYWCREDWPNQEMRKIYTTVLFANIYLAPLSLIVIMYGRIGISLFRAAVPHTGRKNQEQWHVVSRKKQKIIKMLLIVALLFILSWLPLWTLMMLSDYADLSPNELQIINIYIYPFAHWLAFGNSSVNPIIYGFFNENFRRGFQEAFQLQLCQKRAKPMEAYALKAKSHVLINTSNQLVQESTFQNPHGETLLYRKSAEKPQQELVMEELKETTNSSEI

CC(C)C[C@H](NC(=O)[C@H](Cc1ccccc1)NC(=O)[C@H](C)NC(=O)[C@H](CCC(N)=O)NC(=O)[C@@H](N)CO)C(=O)N[C@@H](Cc1ccccc1)C(=O)N[C@@H](CCC(N)=O)C(=O)N1CCC[C@H]1C(=O)N[C@@H](CCC(N)=O)C(=O)N[C@@H](CCCNC(=N)N)C(=O)N[C@@H](Cc1ccccc1)C(N)=O [hNPSF]
Emax (human NPFFR2; [2]): 56 ± 2%
Emax (human NPFFR2; NPFFR2 wild-type (100% DNA treated for hNPSF), mean of three independent experiments ± SEM): 77 ± 3%
EC50 (human NPFFR2; [2]): 6.31 nM
EC50 (human NPFFR2; NPFFR2 wild-type (100% DNA treated for hNPSF), three independent experiments): 3.16 nM
EC50 [1]: 31.6 nM
Emax ([1]; HEK-293T): 78 ± 2%
